The supplement of paper PMC10307832

Experiments:
Experiment in all cases: relative viability (nuclei count vs DMSO), 5 days (fraction); higher = more cells survive
Vismodegib + Lapatinib = compound: CS(=O)(=O)c1ccc(C(=O)Nc2ccc(Cl)c(-c3ccccn3)c2)c(Cl)c1 [Vismodegib] + CS(=O)(=O)CCNCc1ccc(-c2ccc3ncnc(Nc4ccc(OCc5cccc(F)c5)c(Cl)c4)c3c2)o1 [Lapatinib] (partner 2 µM)
Procedure, shortened: (§1)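 Relative viability equals treated-well nuclei counts divided by vehicle-well nuclei counts. Counts came from 4× images of lung cancer cell lines grown in 1536-well plates for 5 days after pin-tool dosing on the day after seeding. Dosing used one drug alone or a fixed anchor-drug dose plus five library-drug doses (not always all listed) in √10 steps, and values are medians of duplicate plates.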

Vismodegib + Olaparib = compound: CS(=O)(=O)c1ccc(C(=O)Nc2ccc(Cl)c(-c3ccccn3)c2)c(Cl)c1 [Vismodegib] + O=C(c1cc(Cc2n[nH]c(=O)c3ccccc23)ccc1F)N1CCN(C(=O)C2CC2)CC1 [Olaparib] (partner 8 µM)
Procedure, shortened: as §1

VE-821 + Palbociclib = compound: CS(=O)(=O)c1ccc(-c2cnc(N)c(C(=O)Nc3ccccc3)n2)cc1 [VE-821] + CC(=O)c1c(C)c2cnc(Nc3ccc(N4CCNCC4)cn3)nc2n(C2CCCC2)c1=O [Palbociclib] (partner 0.5 µM)
Procedure, shortened: as §1

VE-821 + Pictilisib = compound: CS(=O)(=O)c1ccc(-c2cnc(N)c(C(=O)Nc3ccccc3)n2)cc1 [VE-821] + CS(=O)(=O)N1CCN(Cc2cc3nc(-c4cccc5[nH]ncc45)nc(N4CCOCC4)c3s2)CC1 [Pictilisib] (partner 1 µM)
Procedure, shortened: as §1

Cell Line	relative viability (Vismodegib + Lapatinib; first compound 0.08 µM)	relative viability (Vismodegib + Lapatinib; first compound 0.253 µM)	relative viability (Vismodegib + Lapatinib; first compound 0.8 µM)	relative viability (Vismodegib + Lapatinib; first compound 2.53 µM)	relative viability (Vismodegib + Lapatinib; first compound 8 µM)	relative viability (Vismodegib + Olaparib; first compound 0.08 µM)	relative viability (Vismodegib + Olaparib; first compound 0.253 µM)	relative viability (Vismodegib + Olaparib; first compound 0.8 µM)	relative viability (Vismodegib + Olaparib; first compound 2.53 µM)	relative viability (Vismodegib + Olaparib; first compound 8 µM)	relative viability (VE-821 + Palbociclib; first compound 0.08 µM)	relative viability (VE-821 + Palbociclib; first compound 0.253 µM)	relative viability (VE-821 + Palbociclib; first compound 0.8 µM)	relative viability (VE-821 + Palbociclib; first compound 2.53 µM)	relative viability (VE-821 + Palbociclib; first compound 8 µM)	relative viability (VE-821 + Pictilisib; first compound 0.08 µM)	relative viability (VE-821 + Pictilisib; first compound 0.253 µM)	relative viability (VE-821 + Pictilisib; first compound 0.8 µM)	relative viability (VE-821 + Pictilisib; first compound 2.53 µM)	relative viability (VE-821 + Pictilisib; first compound 8 µM)
COR-L 105	0.36	0.38	0.392	0.363	0.337	0.605	0.64	0.69	0.698	0.537	0.432	0.339	0.443	0.409	0.399	0.46	0.392	0.402	0.405	0.38
NCI-H2342	–	–	–	–	–	0.402	0.421	0.418	0.52	0.406	0.503	0.557	0.528	0.521	0.494	–	–	–	–	–
SW 900	–	–	–	–	–	0.743	0.866	0.784	–	0.803	0.549	0.52	0.46	0.542	0.36	–	–	–	–	–
LOU-NH91	0.757	0.798	0.663	0.745	0.841	0.873	0.907	0.936	0.904	0.917	0.543	0.512	0.545	0.548	0.565	0.527	0.506	0.496	0.524	0.525
HCC-15	0.883	0.854	0.823	0.882	0.74	0.652	0.709	0.718	0.737	0.608	0.822	0.767	0.809	0.907	0.748	0.947	0.757	0.781	0.92	0.749
A-427	1.09	1.04	1.01	0.977	1.13	0.743	0.804	0.642	0.675	0.786	0.55	0.547	0.565	0.562	0.449	0.763	0.538	0.54	0.684	0.389
SW 1573	0.974	1.08	1.14	0.959	1.18	–	0.487	0.476	0.442	0.497	0.419	0.439	0.449	0.353	0.315	0.625	0.531	0.541	0.569	0.47
NCI-H2087	0.872	0.856	1.12	1.07	0.863	0.582	0.594	0.607	0.594	0.508	0.263	0.192	0.292	0.259	0.297	1.23	0.721	0.971	1.14	0.888
LK-2	0.916	0.941	0.893	0.896	0.72	0.379	0.574	0.956	0.638	0.604	0.762	0.737	0.781	0.563	0.639	0.709	0.59	0.601	0.595	0.606
